According to patent US12570612B2, “Substituted nitrogen heterocyclic compound and anesthetic effect thereof” (priority 2019, dated 2026):

Experiments:
Sprague-Dawley rats = assay: animal or person; settings: for ED50: LORR in rats, tail vein, brackets = 95% confidence limit; for Approximate therapeutic index / Minimal lethal dose: rats
Procedure: Adult male Sprague-Dawley rats (250-300 g) were selected for the experiment. […] The anesthesia effects of the compounds were assessed in rats using a LORR assay and a period >30 s was considered as an indicator of general anesthesia.

H295R cell line [1] = assay: Adrenocortical function in vitro test: secretion of cortisol and corticosterone, Group B compounds; assay type: cell-based; settings: H295R cells; for EC50: 0.1-10000 nM, HPLC-MS/MS
H295R cell line [2] = assay: Adrenocortical function in vitro test: secretion of cortisol and corticosterone, Group A compounds; assay type: cell-based; settings: H295 cells; for EC50: 0.1-10000 nM, HPLC-MS/MS
[3] = Homo sapiens, NCI-H295R, read-out: EC50 (Corticosterone)
[4] = Homo sapiens, NCI-H295R, read-out: EC50 (Cortisol)
[5] = read-out: EC50 (Corticosterone)

| SMILES | ED50 (Sprague-Dawley rats; Rattus norvegicus) [mg/kg] | Approximate therapeutic index (Sprague-Dawley rats) | Minimal lethal dose (Sprague-Dawley rats) [mg/kg] | Corticosterone as an indicator to determine the presence of inhibition (H295R cell line [1]) | Cortisol as an indicator to determine the presence of inhibition (H295R cell line [1]) | EC50 (H295R cell line [1]; [3]) [nM] | EC50 (H295R cell line [1]; [4]) [nM] | ED50 (Sprague-Dawley rats) | EC50 (H295R cell line [1]; [5]) [nM] | EC50 (H295R cell line [1]; read-out: EC50 (Cortisol)) [nM] | Corticosterone as an indicator to determine the presence of inhibition (H295R cell line [2]) | Cortisol as an indicator to determine the presence of inhibition (H295R cell line [2]) | EC50 (H295R cell line [2]; [5]) [µM] | EC50 (H295R cell line [2]; read-out: EC50 (Cortisol)) [µM] |
| --- | --- | --- | --- | --- | --- | --- | --- | --- | --- | --- | --- | --- | --- | --- |
| C[C@H](c1ccccc1)n1nncc1C(=O)OCC1CC1 [Compound B7] | 0.5 to 1 | >31 | >24 | 0 | 0 | > 100 | > 100 |  |  |  |  |  |  |  |
| C=C=CC1(OC(=O)c2cnnn2[C@H](C)c2ccccc2)CCCCC1 [Compound B11] |  | >8 | >6 | 0 | 0 |  |  | B (B indicates that the measured ED50 is in the range of 0.50-1.00 mg/kg (excluding 0.50 mg/kg, including 1.00 mg/kg)) | > 1000 | > 1000 |  |  |  |  |
| CC(C)OC(=O)c1c(Br)nnn1[C@H](C)c1ccccc1 [Compound B115] | 0.5 to 1 | >25 | >18 | 0 | 0 | > 3000 | > 3000 |  |  |  |  |  |  |  |
| C=CC(CC)OC(=O)c1cnnn1[C@H](C)c1ccccc1 (some centres unmarked) [Compound B13] | 0.5 to 1 | >2 | >1 | 0 | 0 | > 1000 | > 1000 |  |  |  |  |  |  |  |
| C[C@H](c1ccccc1)n1nnc(I)c1C(=O)OC1(C)COC1 [Compound B140] | 10 to 20 | >2 | >30 | 0 | 0 | > 1000 | > 1000 |  |  |  |  |  |  |  |
| C=CC1(OC(=O)c2c(F)nnn2[C@H](C)c2ccccc2)COC1 [Compound B51] | 1 to 2 | >12 | >14 | 0 | 0 | > 1000 | > 1000 |  |  |  |  |  |  |  |
| CC(C)O[C@H]1C[C@@H](OC(=O)c2cnnn2[C@H](C)c2ccccc2)C1 [Compound B26] | 1 to 2 | >10 | >12 | 0 | 0 | > 100 | > 100 |  |  |  |  |  |  |  |
| CCSC(=O)c1c(Br)nnn1[C@H](C)c1ccccc1 [Compound B120] | 0.5 to 1 | >21 | >15 | 0 | 0 | > 1000 | > 1000 |  |  |  |  |  |  |  |
| CC(=O)C1=C(OC(=O)c2cnnn2[C@H](C)c2ccccc2)CCCC1 [Compound B15] | 0.5 to 1 | >9 | >9 | 0 | 0 | > 1000 | > 1000 |  |  |  |  |  |  |  |
| C=CCOC(=O)c1c(I)nnn1[C@H](C)c1ccccc1 [Compound B136] |  | >6 | >18 | 0 | 0 |  |  | D (D indicates that the measured ED50 is in the range of 2.00-10.00 mg/kg (excluding 2.00 mg/kg, including 10.00 mg/kg)) | > 1000 | > 1000 |  |  |  |  |
| CCOC(=O)c1c(I)nnn1[C@H](C)c1ccccc1 [Compound B127] | 0.5 to 1 | >23 | >16 | 0 | 0 | > 3000 | > 3000 |  |  |  |  |  |  |  |
| C[C@H](c1ccccc1)n1nnc(Br)c1C(=O)OC1CCC1 [Compound B104] |  | >10 | >11 | 0 | 0 |  |  | C (C indicates that the measured ED50 is in the range of 1.00-2.00 mg/kg (excluding 1.00 mg/kg, including 2.00 mg/kg)) | > 3000 | > 3000 |  |  |  |  |
| C=C=CC1(OC(=O)c2c(Br)nnn2[C@H](C)c2ccccc2)COC1 [Compound B101] |  | >7 | >13 | 0 | 0 |  |  | C (C indicates that the measured ED50 is in the range of 1.00-2.00 mg/kg (excluding 1.00 mg/kg, including 2.00 mg/kg)) | > 1000 | > 1000 |  |  |  |  |
| COC(=O)C1(OC(=O)c2c(Br)nnn2[C@H](C)c2ccccc2)CC1 [Compound B121] | 2 to 10 | >3 | >20 | 0 | 0 | > 1000 | > 1000 |  |  |  |  |  |  |  |
| C=C=CC1(OC(=O)c2c(I)nnn2[C@H](C)c2ccccc2)CCCCC1 [Compound B137] | 1 to 2 | >9 | >12 | 0 | 0 | > 1000 | > 1000 |  |  |  |  |  |  |  |
| C=CCOC(=O)c1cnnn1[C@H](C)c1ccccc1 [Compound B10] | 0.5 to 1 | >16 | >11 | 0 | 0 | > 100 | > 100 |  |  |  |  |  |  |  |
| C[C@H](c1ccccc1)n1nnc(Br)c1C(=O)OC(C)(C)C [Compound B110] |  | >7 | >16 | 0 | 0 |  |  | D (D indicates that the measured ED50 is in the range of 2.00-10.00 mg/kg (excluding 2.00 mg/kg, including 10.00 mg/kg)) | > 3000 | > 3000 |  |  |  |  |
| CCOC(=O)c1c(C(F)(F)F)nnn1[C@H](C)c1ccccc1 [Compound B145] | 2 to 10 | >4 | >18 | 0 | 0 | > 3000 | > 3000 |  |  |  |  |  |  |  |
| CCOC(=O)c1c(Br)nnn1[C@H](C)c1ccccc1 [Compound B99] |  | >16 | >8 | 0 | 0 |  |  | A (A indicates that the measured ED50 is in the range of 0.04-0.50 mg/kg (including 0.04 and 0.50 mg/kg)) | > 3000 | > 3000 |  |  |  |  |
| C=C=CC1(OC(=O)c2c(F)nnn2[C@H](C)c2ccccc2)COC1 [Compound B35] | 0.04 to 0.5 | >29 | >8 | 0 | 0 | > 1000 | > 1000 |  |  |  |  |  |  |  |
| C[C@H](c1ccccc1)n1nnc(I)c1C(=O)OC1CCC1 [Compound B132] | 0.5 to 1 | >16 | >12 | 0 | 0 | > 1000 | > 1000 |  |  |  |  |  |  |  |
| C[C@H](c1ccccc1)n1nnc(I)c1C(=O)OC1CC1 [Compound B144] | 10 to 20 | >2 | >24 | 0 | 0 | > 1000 | > 1000 |  |  |  |  |  |  |  |
| C[C@H](c1ccccc1)n1nnc(Cl)c1C(=O)OC1CCC1 [Compound B70] |  | >2 | >15 | 0 | 0 |  |  | D (D indicates that the measured ED50 is in the range of 2.00-10.00 mg/kg (excluding 2.00 mg/kg, including 10.00 mg/kg)) | > 1000 | > 1000 |  |  |  |  |
| CC=CC1(OC(=O)c2cnnn2C(C)c2ccccc2)COC1 (mixture of isomers) [Compound B21] |  | >11 | >8 | 0 | 0 |  |  | B (B indicates that the measured ED50 is in the range of 0.50-1.00 mg/kg (excluding 0.50 mg/kg, including 1.00 mg/kg)) | > 100 | > 100 |  |  |  |  |
| C[C@H](c1ccccc1)n1cncc1C(=O)O [Etomidate acid, etomidate acid, reference compound] |  |  |  | 0 | 0 |  |  |  | > 10000 | > 10000 | 0 | 0 | > 10 | > 10 |
